# From patent US6878690B2, “Compounds and methods” (PharmAxis Pty Ltd., priority 2000, dated 2005)
# Test system: myelin basic protein (MBP)-specific T lymphocyte cell lines
# Assay: Inhibition of T-lymphocyte migration across rat brain endothelial cell layer (Transwell, 51Cr-labelled cells)
# Assay type: cell-based, Lewis rats
# Conditions: test substance 10 mmolar in upper well; 6 hours; in comparison with the negative control (glucose 6-phosphate); triplicate
# Source text: Vascular endothelial cells were isolated from rat brain capillaries taken from 6 to 8 week old Lewis rats according to the method of Risau et al. (Risau, W., Engelhardt, B., and Wekerle, H., (1990). Journal of Cell Biology, vol 110, p 1757-1766, which is incorporated herein by reference). Colonies of endothelial cells were purified from astroglial cells and pericytes by a Thy1.1-mediated complement lysis also after the method of Risau et al. (vide supra). The endothelial colonies, according to methods known in the art, were grown in Dulbecco's minimum essential medium (DMEM) high glucose supplemented, with 20% fetal calf serum (FCS), glutamine, pyruvate, nonessential amino acids, 4-(2-hydroxyethyl)-1-piperazine ethane sulfonic acid buffer (HEPES), kanamycin, amphotericin, heparin (all from Gibco) and 150 micrograms/ml endothelial growth supplement (Collaborative Biomedical Products). Upon reaching confluence, the endothelial cultures were washed with 0.2% EDTA in phosphate buffered saline (PBS), trypsinized (Trypsin-EDTA, 0.1% final concentration, Gibco), washed and again incubated with anti-Thy1.1 antibody for 40 minutes, washed and incubated with complement sufficient to lyse all Thy1.1+ cells (Behringwerke, AG, Marburg, Germany) at room temperature, washed and plated on matrigel-coated 6.5 mm Transwells, […] (Corning Costar Corporation, Cambridge, Mass.). The endothelial cell characteristics and confluence of the monolayer were checked by measuring the electrical resistance (World Precision Instruments, New Haven, U.S.A., model EVOM-G) and by staining with FITC-labeled phalloidin (Sigma). In order to study the effect of the agents of the present invention on T lymphocyte migration, myelin basic protein (MBP)-specific T lymphocyte cell lines were generated according to the method of Ben-Nun et al. (Ben-Nun, A., Wekerle, H. and Cohen, I. R., 1981). The rapid isolation of clonable antigen-specific T lymphocyte lines capable of mediating autoimmune encephalomyelitis. European Journal of Immunology. 1981, 11(3), 195-199; incorporated herein by reference) from the lymph nodes of Lewis rats that had been immunised with MBP in Freund's complete adjuvant. These cells were used for migration studies during the first 4 days of their propagation in IL-2 containing medium, following antigen (MBP) restimulation in the presence of antigen-presenting cells from irradiated spleen cells or thymocytes taken from normal Lewis rats. The antigen-activated T lymphocytes were radio-labelled with sodium chromate (^51Cr, 37 MBq/ml, Amersham, UK) for 30 minutes at 37° C. with occasional agitation, they were then washed three times with the DMEM culture medium and placed into the upper chamber of the Transwells at 5×10^5 cells in 100 microliters of migration medium. Test and control substance were included in the upper wells at final concentrations of 0.1, 1 and 10 mM. Cell migration was monitored by light microscopy in order to gauge progress of the experiment. […] The combined material was transferred into scintillation vials and the radioactivity of each tube determined by counting for 1 minute in a Packard Auto-Gamma 5650 (IL, USA) gamma counter. Each test and the control substance (glucose 6-phosphate) and no treatment were assessed in triplicate. […]
smiles,measurement,value
"CCCC1OC(COP(=O)(O)O)C(O)C(O)C1O (stereo not shown) [phosphoric acid mono-(6-propyl-3,4,5-trihydroxy-tetrahydro-pyran-2-ylmethyl) ester]",% inhibition ± SEM,64 ± 4%
